# Entries after “also recorded” stand apart in the source; their conditions may differ. Read-outs that look alike come from different tables or passages of the source.
# Legend:
# A20 cells = test: In vitro apoptosis of A20 cells; format: cell-based, mouse; details: 72 hours after high dose dexamethasone treatment in vitro
# [1] = test system: peripheral blood lymphocytes
# Description: For initial lymphodepletion studies, naïve C57Bl/6 mice were treated with 18 mg/kg HED DP by oral gavage. Male C57BL/6 mice were obtained from Taconic Bioscience (Germantown, N.Y.) and acclimated to laboratory conditions for at least one week. […] When mice reached study timepoint, they were euthanized as follows. Mice were anesthetized with isoflurane gas. Once anesthetized, blood was drawn via cardiac puncture and place immediately in heparin-lined microtubes. 10 mL of 5 U/mL of Heparin/PBS was used for infused by slow push for retrograde perfusion via the abdominal aorta to flush out all remaining blood from the vasculature. […] The remaining blood was sent to Phoenix Labs (Mukilteo, Wash.) for Complete Blood Counts and Clinical Chemistries
# AVM-NKT cells = details: for Time after treatment at which AVM-NKT cells appear in peripheral blood: high doses of glucocorticoid receptor agonists
# A20 B cell lymphoma [2] = test: A20 lymphoma study AVM_CANMOD_03 (dose response); format: in vivo, mouse
# Description: In a second study (“AVM_CANMOD_03”), BALB/c mice (n=5 per group) were dosed with increasing concentrations of AVM0703 HED DP (7, 18, and 26 mg/kg) on Days 9, 16, 24, and 31 after tumor inoculation. Treatment started when the tumors were approximately […], as opposed to well-established tumors of 150 mm^3 as in study AVM_CANMOD_01.
# Based on evidence of pseudogrowth in tumors from AVM0703-treated mice in study AVM_CANMOD_01, tumors (n=2 per group) were sent to HistoTox Labs for slicing and immunohistochemistry. Hematoxylin and eosin stains identified several regions of necrosis and the slides were scored from 0 to 5 depending on severity.
# [3] = test system: peripheral blood mononuclear cells or single cell splenocytes; test: In vitro apoptosis of mouse blood mononuclear cells and splenocytes; format: cell-based; details: up to 500 micromolar; out to 72 hours
# Description: Mononuclear cells from peripheral blood of naïve male C57Bl/6 mice or single cell splenocytes were incubated with equivalent concentrations of AVM0703 as the peak blood concentrations of acute high dose AVM0703 achieve in vivo.
# Blood and spleens were taken from naïve C57B16 mice. Mononuclear cells were isolated from blood and single cell splenocytes were isolated from the spleen. […] Therefore, the complete in vivo T and B lymphocyte ablation appears to be mediated by the AVM-NKT, and not a receptor based mechanism such as activation of a glucocorticoid receptor.
# female NOD mice [4] = test: Prevention or delay of hyperglycemia in spontaneously diabetic female NOD mice; format: in vivo, mouse; details: for First Onset of hyperglycemia (weeks of age): dosing from 10 weeks of age, AVM0703 single oral HED 18 or 30 mg/kg, cyclosporine 5 then 10 mg/kg twice weekly, venetoclax 25 mg/kg; for % Hyperglycemic at 22 wks of age / Median Time to diabetes (days after 10 wks of age): same groups
# Description: Female NOD mice were ordered at 9 weeks of age.
# Body weights and blood glucose levels were monitored weekly. Body condition was monitored three times per week. Oral glucose tolerance was determined in all surviving mice who reached 30 weeks of age. Remaining mice were necropsied and autoreactive lymphocytes in the pancreas and adjacent lymph nodes were determined by flow cytometry. Pancreatitis was determined by H&E staining (8 out of 15 per group). Pancreatic Beta cell surface area was measured by staining for insulin. […] Pancreas and pancreas lymph nodes were examined for autoreactive, insulin-specific CD4+ T cells by using a magnetic enrichment method together with tetramer reagents.
# [5] = test system: CD3high, CD45dim, CD49b+ cells; test: Venetoclax pre-treatment before high dose DSP in female NOD mice; format: in vivo, mouse; details: 48 hours
# Description: Female NOD mice of 10 weeks of age are treated with 12.5 mg/kg up to 50 mg/kg venetoclax 6-18 hours before oral gavage of a HED 30 mg/kg DSP dose. […] CD3high, CD45dim, CD49b+ cells are reduced from—70 cells/microliter with DSP alone to—40 cells/microliter with 12.5 mg/kg venetoclax pretreatment, to—20 cells/microliter with 25 mg/kg venetoclax pretreatment, to—15 cells/microliter with 50 mg/kg venetoclax pretreatment. Venetoclax is a Bcl-2 inhibitor.
# A20 B cell lymphoma [6] = test: A20 B-cell lymphoma models, summary of studies; format: in vivo, mouse
# Description: The mouse A20 lymphoma model is a very aggressive tumor model because it employs multiple direct (expression of immunoinhibitory molecule PD-L1, IDO, and IL-10, and lack of expression of CD80 costimulatory molecule) and indirect (downregulation of APC function and induction of Treg cells) immune evasion mechanisms. In addition, in the studies described in the following, AVM0703 was not dosed until A20 tumors were very well-established, at between ˜120 to 400 mm^3 in volume.
# Male BALB/c mice were inoculated subcutaneously in the flank with A20 B lymphoma cells embedded in Matrigel. Tumor volumes were monitored by caliper measurements, and when the tumors were well established at about 150 mm^3, or very well established for study “AVM_CANMOD_05” at about 400 mm^3, mice were treated with AVM0703 at HED doses of 7, 18, 22, or 25 mg/kg. Endpoint is typically defined as tumor volume of 1500 mm^3.
# These mice were pooled and a contingency table analysis was performed using Fisher's exact test.
# A20 B cell lymphoma [7] = test: A20 lymphoma study AVM_CANMOD_05, lymphodepletion subset
# A20 B cell lymphoma [8] = test: A20 lymphoma study AVM_CANMOD_01 (repeat dosing); format: in vivo, mouse
# [9] = test system: CCRF-CEM human T cell lymphoma; test: CCRF-CEM human T cell lymphoma xenograft in NCr nude mice (AVM_CANMOD_06)
# Description: A pilot study (“AVM_CANMOD_06”) was performed to investigate anti-tumor efficacy of AVM0703 in a human T cell lymphoma model, CCRF-CEM.
# Tumor volume was assessed 3 times per week and endpoint was defined as either a tumor volume greater than 1500 mm^3 or greater than a 20% loss from initial body weight measurement.
# female NOD mice [10] = test: Reversal of early onset and established diabetes in female NOD mice; details: mouse, in vivo
# Description: Female NOD mice are ordered at 9 weeks of age. Blood glucose levels are measured weekly starting at 10 weeks of age. Once a mouse has non-fasting blood glucose above 250 mg/dl, another measure is taken the following day.
# For reversal of new-onset diabetes AVM0703 dosing is started one day after a mouse has had two consecutive days of elevated non-fasting blood glucose levels. Insulin pellets are implanted subcutaneously on the second day of elevated blood glucose levels. For reversal of established diabetes, two consecutive weeks of elevated blood glucose are measured, insulin pellets are implanted on day 8 after the first day of measured elevated blood glucose levels and AVM0703 is dosed on day 14 after the first day of measured elevated blood glucose levels.
# A20 B cell lymphoma [11] = test: A20 lymphoma study AVM_CANMOD_05, endpoint analysis subset; format: in vivo, mouse
# [12] = pharmacodynamic (biologic) half-life; cited from earlier work
# [13] = high-dose dexamethasone, naïve mice
# [14] = 18, 22, and 25 mg/kg pooled, n = 40
structure (smiles),measurement,setting,value
C[C@@H]1C[C@H]2[C@@H]3CCC4=CC(=O)C=C[C@]4(C)[C@@]3(F)[C@@H](O)C[C@]2(C)[C@@]1(O)C(=O)CO [dexamethasone],Apoptosis of A20 cells,A20 cells,about 30%
same,Platelet numbers,[1]; 18 mg/kg HED DP,spared; also recorded: does not affect
same,Number of live hematopoietic stem cells,"[1]; 18 mg/kg HED DP, 6 hours to 35 days",does not significantly alter
same,Basophils,[1]; [13],reduced only at the 6 hour time point
same,Eosinophils,[1]; [13],reduced only at the 24 and 48 hour time points
same,HSCs and MSCs,[1]; [13],spared or increased
same,RBCs,[1]; [13],spared
same,Time after treatment at which AVM-NKT cells appear in peripheral blood,AVM-NKT cells,around 48 hours
same,Time to induction of AVM-NKT cells in the spleen,"AVM-NKT cells; normal mice, after dexamethasone dosing",≤ 48 h
"C[C@@H]1C[C@H]2[C@@H]3CCC4=CC(=O)C=C[C@]4(C)[C@@]3(F)[C@@H](O)C[C@]2(C)[C@@]1(O)C(=O)COP(=O)(O)O [dexamethasone phosphate, reference compound]",Tumor CD3 expression (immunohistochemistry),"A20 B cell lymphoma [2]; 7, 18, 25 mg/kg DP vs placebo",visually decreased
same,Tumor NKp46 staining,"A20 B cell lymphoma [2]; 7, 18, 25 mg/kg DP vs placebo",visual increase
same,HistoTox Labs Necrosis H&E (0-5),"A20 B cell lymphoma [2]; individual tumors, 18 mg/kg, tumor 158 mm^3 at dosing",greatest degree of necrosis
same,Apoptosis,[3],no in vitro apoptosis was observed
C[C@H]1C[C@H]2[C@@H]3CCC4=CC(=O)C=C[C@]4(C)[C@@]3(F)[C@@H](O)C[C@]2(C)[C@@]1(O)C(=O)CO [betamethasone],Time after treatment at which AVM-NKT cells appear in peripheral blood,AVM-NKT cells,around 48 hours
"CC1(C)CCC(CN2CCN(c3ccc(C(=O)NS(=O)(=O)c4ccc(NCC5CCOCC5)c([N+](=O)[O-])c4)c(Oc4cnc5[nH]ccc5c4)c3)CC2)=C(c2ccc(Cl)cc2)C1 [Venetoclax, venetoclax, reference compound]",First Onset of hyperglycemia (weeks of age),female NOD mice [4],14 weeks of age
same,% Hyperglycemic at 22 wks of age,female NOD mice [4],90%
same,Median Time to diabetes (days after 10 wks of age),female NOD mice [4],51 days
same,"CD3high, CD45dim, CD49b+ cells mobilized into the blood",[5]; 12.5 mg/kg venetoclax 6-18 hours before HED 30 mg/kg DSP,40 cells/microliter
same,"CD3high, CD45dim, CD49b+ cells mobilized into the blood",[5]; 25 mg/kg venetoclax 6-18 hours before HED 30 mg/kg DSP,20 cells/microliter
same,"CD3high, CD45dim, CD49b+ cells mobilized into the blood",[5]; 50 mg/kg venetoclax 6-18 hours before HED 30 mg/kg DSP,15 cells/microliter
C[C@@H]1C[C@H]2[C@@H]3CCC4=CC(=O)C=C[C@]4(C)[C@@]3(F)[C@@H](O)C[C@]2(C)[C@@]1(O)C(=O)CO [dexamethasone base],Induction of AVM-NKT cells (dose escalation),AVM-NKT cells; 15 mg/kg HED,particularly robust production
same,Induction of AVM-NKT cells (dose escalation),AVM-NKT cells; 6+6 mg/kg HED dosing schedule,particularly robust production
same,Induction of AVM-NKT cells (dose escalation),AVM-NKT cells; single dose between 6-12 mg/kg HED,can induce AVM-NKT cells
"C[C@@H]1C[C@H]2[C@@H]3CCC4=CC(=O)C=C[C@]4(C)[C@@]3(F)[C@@H](O)C[C@]2(C)[C@@]1(O)C(=O)CO [AVM0703, dexamethasone]","HistoTox Labs Necrosis H&E (0-5), Average","A20 B cell lymphoma [6]; 18 mg/kg, n = 15",2.7 n = 15
same,"MetaMorph Area of Live Tumor, Average","A20 B cell lymphoma [6]; 18 mg/kg, n = 18",66^ n = 18 AU × 1000
same,"MetaMorph Percent Necrotic, Average","A20 B cell lymphoma [6]; 18 mg/kg, n = 18",59 n = 18%
same,"MetaMorph Area of Live Tumor, Average","A20 B cell lymphoma [6]; 22 mg/kg, n = 11",87 n = 11 AU × 1000
same,"MetaMorph Percent Necrotic, Average","A20 B cell lymphoma [6]; 22 mg/kg, n = 11",53 n = 11%
same,"MetaMorph Area of Live Tumor, Average","A20 B cell lymphoma [6]; 25 mg/kg, n = 11",77 n = 11 AU × 1000
same,"MetaMorph Percent Necrotic, Average","A20 B cell lymphoma [6]; 25 mg/kg, n = 11",63 n = 11%
same,"MetaMorph Area of Live Tumor, Average",A20 B cell lymphoma [6]; [14],75 n = 40 AU × 1000
same,"MetaMorph Percent Necrotic, Average",A20 B cell lymphoma [6]; [14],59 n = 40%
same,Mice with significantly delayed onset,female NOD mice [4]; AVM0703 alone,60%
same,Mice in which diabetes was prevented,"female NOD mice [4]; AVM0703 alone, 5 month study",40%
same,First Onset of hyperglycemia (weeks of age),female NOD mice [4],20 weeks of age
same,% Hyperglycemic at 22 wks of age,female NOD mice [4],60%
same,Median Time to diabetes (days after 10 wks of age),female NOD mice [4],113 days
same,Body condition compared with all other groups,female NOD mice [4]; throughout the 5 month study,significantly better body condition
same,Glucose levels,"A20 B cell lymphoma [7]; 18 mg/kg HED, did not reach hypoglycemic levels",significantly reduced
same,"Tumor weight, tumor example","A20 B cell lymphoma [7]; 25 mg/kg, placebo example 0.54 g",0.086 g
same,"Tumor volume, tumor example","A20 B cell lymphoma [7]; 25 mg/kg, placebo example 956 mm^3",203.25 mm^3
same,Glucose levels,A20 B cell lymphoma [7]; tumor model,not elevated
same,Mice reaching the 20% body weight loss threshold,"A20 B cell lymphoma [8]; after 46 days and 8 doses, n=5",One mouse
same,Body weight,"A20 B cell lymphoma [8]; repeat 18 mg/kg HED DP dosing, up to 7 doses",Does Not Reduce Body Weight
same,Sudden deaths,"A20 B cell lymphoma [2]; 7, 18, 26 mg/kg",no sudden deaths
same,"Spleen, thymus, colon, pancreas weights","A20 B cell lymphoma [2]; 7, 18, 26 mg/kg, at euthanization",No significant differences
same,Additional median survival compared with placebo,"A20 B cell lymphoma [2]; 18 and 26 mg/kg, not significant",approximately 6 days
same,Tumor necrosis,"A20 B cell lymphoma [2]; A20-3 DRC, 18&26 mg/kg",18&26 mg/kg 50-80% necrotic
same,Day after tumor inoculation on which one mouse was found dead,[9]; 18 mg/kg weekly,89 days
same,Tumor lysis,[9]; one treated mouse,Significant tumor lysis; also recorded: Evidence of Tumor Lysis Syndrome
same,Body weight loss or poor body condition,female NOD mice [10],without the body weight loss or poor body condition
same,Tumor resorbed,A20 B cell lymphoma [11]; 1 mouse treated at 18 mg/kg,99.5%
same,Overall complete response rate,A20 B cell lymphoma [11]; both subsets of AVM_CANMOD_05,9%
same,MetaMorph Area of Live Tumor,"A20 B cell lymphoma [11]; individual mice, 18 mg/kg",27 AU × 1000
same,MetaMorph Percent Necrotic,"A20 B cell lymphoma [11]; individual mice, 18 mg/kg",69%
C[C@]12C=CC(=O)C=C1CC[C@@H]1[C@@H]2C(=O)C[C@@]2(C)[C@H]1CC[C@]2(O)C(=O)CO [prednisone],Biologic half-life,[12],about 20 hours

# From US20230096897A1, “Lymphocyte Population and Methods for Producing Same” (AVM Biotechnology, LLC, priority 2020, published 2023)
